From patent publication US12060400B2, “Peptides for use in immunotherapy against cancers” (Immatics Biotechnologies GmbH, priority 2018, dated 2024)

Test system: HLA-A*24
Assay: MHC binding assay: UV-ligand exchange with beta2m ELISA (peptide exchange yield)
Parameters: species or system human
Settings: Table 11, binding to HLA-A*24, UV-ligand exchange
Summary of the method: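 Peptide-MHC complexes generated by UV-induced exchange of a photocleavable ligand with the test peptide; exchange yield quantified by streptavidin-capture ELISA detecting β2m (HRP anti-β2m, TMB, A450). Samples diluted 100-fold, with refolded HLA-A*02:01/MLA-001 monomers (15-500 ng/ml) as standards.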

Peptide exchange (MHC class I binding score, peptide exchange yield) | Substance
++ (>20% = ++) | 243 (ALFPMGPLTF; listed as Homo sapiens) [compound 243]
++ (>20% = ++) | 161 (ILQAPLSVF; listed as Homo sapiens) [compound 161]
++++ (>75% = ++++) | 242 (SYTPLLSYI; listed as Homo sapiens) [compound 242]
++ (>20% = ++) | 344 (YAYATVLTF; listed as Homo sapiens) [compound 344]
++++ (>75% = ++++) | 217 (QRYGFSSVGF; listed as Homo sapiens) [compound 217]
++ (>20% = ++) | 264 (AYAIPSASLSW; listed as Homo sapiens) [compound 264]
+++ (>50 = +++) | 181 (IHGIKFHYF; listed as Homo sapiens) [compound 181]
++++ (>75% = ++++) | 333 (RYADLLIYTY; listed as Homo sapiens) [compound 333]
++++ (>75% = ++++) | 173 (RYLSVCERL; listed as Homo sapiens) [compound 173]
++ (>20% = ++) | 280 (TIYSLEMKMSF; listed as Homo sapiens) [compound 280]
++ (>20% = ++) | 216 (RHYHSIEVF; listed as Homo sapiens) [compound 216]
++++ (>75% = ++++) | 341 (RYENVSILF; listed as Homo sapiens) [compound 341]
++++ (>75% = ++++) | 325 (IFMGAVPTL; listed as Homo sapiens) [compound 325]
+++ (>50 = +++) | 51 (YFDENIQKF; listed as Homo sapiens) [compound 51]
++ (>20% = ++) | 278 (TYESVVTGFF; listed as Homo sapiens) [compound 278]
++ (>20% = ++) | 24 (KMLPEASLLI; listed as Homo sapiens) [compound 24]
++ (>20% = ++) | 292 (KMFPKDFRF; listed as Homo sapiens) [compound 292]
++ (>20% = ++) | 269 (FSFSTSMNEF; listed as Homo sapiens) [compound 269]
+++ (>50 = +++) | 307 (RILTEFELL; listed as Homo sapiens) [compound 307]
++ (>20% = ++) | 55 (AVLRHLETF; listed as Homo sapiens) [compound 55]
++ (>20% = ++) | 35 (FSSTLVSLF; listed as Homo sapiens) [compound 35]
++++ (>75% = ++++) | 192 (CYSFIHLSF; listed as Homo sapiens) [compound 192]
++++ (>75% = ++++) | 295 (KYNRQSMTL; listed as Homo sapiens) [compound 295]

Peptide exchange (MHC class I binding score, peptide exchange yield) | Substance
++++ (>75% = ++++) | 276 (KFLGSKCSF; listed as Homo sapiens) [compound 276]
+ (>10% = +) | 166 (MMALWSLLHL; listed as Homo sapiens) [compound 166]
++++ (>75% = ++++) | 84 (YTIERYFTL; listed as Homo sapiens) [compound 84]
++ (>20% = ++) | 184 (VYVRPRVF; listed as Homo sapiens) [compound 184]
+++ (>50 = +++) | 141 (QYAAAITNGL; listed as Homo sapiens) [compound 141]
++ (>20% = ++) | 370 (TQMDVKLVF; listed as Homo sapiens) [compound 370]
+++ (>50 = +++) | 10 (QYPEFSIEL; listed as Homo sapiens) [compound 10]
++++ (>75% = ++++) | 321 (VYTVGHNLI; listed as Homo sapiens) [compound 321]
++++ (>75% = ++++) | 118 (IFLPFFIVF; listed as Homo sapiens) [compound 118]
++++ (>75% = ++++) | 380 (FYIRRLPMF; listed as Homo sapiens) [compound 380]
++++ (>75% = ++++) | 218 (FYFYNCSSL; listed as Homo sapiens) [compound 218]
++ (>20% = ++) | 188 (SLPGSFIYVF; listed as Homo sapiens) [compound 188]
++ (>20% = ++) | 196 (VGRSPVFLF; listed as Homo sapiens) [compound 196]
++++ (>75% = ++++) | 343 (EYQQYHPSL; listed as Homo sapiens) [compound 343]
++ (>20% = ++) | 30 (RQAYSVYAF; listed as Homo sapiens) [compound 30]
++++ (>75% = ++++) | 328 (IYLVGGYSW; listed as Homo sapiens) [compound 328]
++++ (>75% = ++++) | 326 (VHMKDFFYF; listed as Homo sapiens) [compound 326]
+++ (>50 = +++) | 46 (IYPDSIQEL; listed as Homo sapiens) [compound 46]
++++ (>75% = ++++) | 125 (LYYGSILYI; listed as Homo sapiens) [compound 125]
++ (>20% = ++) | 289 (RTLNEIYHW; listed as Homo sapiens) [compound 289]
++ (>20% = ++) | 186 (RRVTWNVLF; listed as Homo sapiens) [compound 186]
++ (>20% = ++) | 361 (KQPANFIVL; listed as Homo sapiens) [compound 361]
++++ (>75% = ++++) | 220 (TYATHVTEI; listed as Homo sapiens) [compound 220]

Peptide exchange (MHC class I binding score, peptide exchange yield) | Substance
++ (>20% = ++) | 228 (VYLRIGGF; listed as Homo sapiens) [compound 228]
++ (>20% = ++) | 204 (WQNVTPLTF; listed as Homo sapiens) [compound 204]
++++ (>75% = ++++) | 336 (VYSDLHAFY; listed as Homo sapiens) [compound 336]
++++ (>75% = ++++) | 185 (LYICKVELM; listed as Homo sapiens) [compound 185]
+ (>10% = +) | 223 (KLRALSILF; listed as Homo sapiens) [compound 223]
+++ (>50 = +++) | 299 (FLPALYSLL; listed as Homo sapiens) [compound 299]
++ (>20% = ++) | 357 (RALLPSPLF; listed as Homo sapiens) [compound 357]
++++ (>75% = ++++) | 68 (VYKEDLPQL; listed as Homo sapiens) [compound 68]
++++ (>75% = ++++) | 168 (LSSPVHLDF; listed as Homo sapiens) [compound 168]
++++ (>75% = ++++) | 315 (VYDYIPLLL; listed as Homo sapiens) [compound 315]
++ (>20% = ++) | 159 (VFQPNPLF; listed as Homo sapiens) [compound 159]
+ (>10% = +) | 183 (YQVAKGMEF; listed as Homo sapiens) [compound 183]
+++ (>50 = +++) | 27 (LSCTATPLF; listed as Homo sapiens) [compound 27]
++ (>20% = ++) | 11 (RAMCAMMSF; listed as Homo sapiens) [compound 11]
++++ (>75% = ++++) | 338 (VYLTWLPGL; listed as Homo sapiens) [compound 338]
++ (>20% = ++) | 249 (HQYGGAYNRV; listed as Homo sapiens) [compound 249]
++++ (>75% = ++++) | 222 (HYHAESFLF; listed as Homo sapiens) [compound 222]
++++ (>75% = ++++) | 195 (IYNEHGIQQI; listed as Homo sapiens) [compound 195]
+++ (>50 = +++) | 189 (FYPDEDDFYF; listed as Homo sapiens) [compound 189]
++++ (>75% = ++++) | 40 (NYPEGAAYEF; listed as Homo sapiens) [compound 40]
++++ (>75% = ++++) | 241 (QKYYITGEAEGF; listed as Homo sapiens) [compound 241]
++++ (>75% = ++++) | 350 (VYKWTEEKF; listed as Homo sapiens) [compound 350]
++++ (>75% = ++++) | 306 (RYILEPFFI; listed as Homo sapiens) [compound 306]
